Test results from article PMC6155837, “Design, Synthesis, and Biological Evaluation of a New Series of Biphenyl/Bibenzyl Derivatives Functioning as Dual Inhibitors of Acetylcholinesterase and Butyrylcholinesterase” (Molecules : A Journal of Synthetic Chemistry and Natural …, 2017).
Where two headings read alike, the source gives them in different places.

Legend:
BuChE (from human serum) = molecular target: T1, BuChE (from human serum) (Homo sapiens, UniProt P06276); assay: biochemical
T1 construct: human BuChE purified by human serum; from tissue; host or cells: human serum
T1 sequence (P06276 29-602): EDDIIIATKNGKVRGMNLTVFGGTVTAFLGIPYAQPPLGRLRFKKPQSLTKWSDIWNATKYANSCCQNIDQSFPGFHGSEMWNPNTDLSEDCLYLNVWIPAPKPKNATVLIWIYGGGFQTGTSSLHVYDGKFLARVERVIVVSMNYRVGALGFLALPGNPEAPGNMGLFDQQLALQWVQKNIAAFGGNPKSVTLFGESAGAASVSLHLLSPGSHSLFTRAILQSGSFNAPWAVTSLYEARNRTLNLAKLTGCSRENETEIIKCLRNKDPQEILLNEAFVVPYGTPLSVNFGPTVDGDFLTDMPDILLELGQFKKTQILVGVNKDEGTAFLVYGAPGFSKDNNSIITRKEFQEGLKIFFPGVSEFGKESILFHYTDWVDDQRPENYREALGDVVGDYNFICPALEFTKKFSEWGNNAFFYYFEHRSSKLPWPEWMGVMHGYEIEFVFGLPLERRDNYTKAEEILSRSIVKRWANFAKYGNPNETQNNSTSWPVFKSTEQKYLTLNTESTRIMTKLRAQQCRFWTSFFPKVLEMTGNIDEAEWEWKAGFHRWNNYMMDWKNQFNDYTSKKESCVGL
Method: (§1) All of the assay of acetylcholinesterase (AChE) and butyrylcholinesterase (BuChE) were performed according to the method described by Ellman et al. using the rat AChE purified from the rat brain and human BuChE purified by human serum. In an enzymatic reaction medium contained different concentration of tested compounds and AChE suspended in the phosphate buffer solution at pH 7.2. After 30 min at room temperature, acetylthiocholine iodide and 5.5′-dithiobis-2-nitrobenzoic acid (DNTB) were added and the reaction mixture incubated at 37 °C for 60 min. […] The parallel control experiment was carried without tested compounds in the reaction mixture. For BuChE inhibitory assay, the procedure described above was followed except for the use of enzyme and substrate, instead of which butyrylcholinesterase and butyrylthiocholine chloride were used, respectively. Assays were done with a blank containing all compounds except AChE or BuChE in order to account for nonenzymatic reactions. Each inhibitory test was conducted in triplicate. […] Each concentration was assayed in triplicate and data were expressed as the mean ± SEM.

AChE (from rat brain) = molecular target: T2, AChE (from rat brain) (Rattus norvegicus, UniProt P37136); assay: biochemical; assay type: biochemical
T2 construct: rat AChE purified from the rat brain; from tissue; host or cells: rat brain
T2 sequence (P37136 32-614): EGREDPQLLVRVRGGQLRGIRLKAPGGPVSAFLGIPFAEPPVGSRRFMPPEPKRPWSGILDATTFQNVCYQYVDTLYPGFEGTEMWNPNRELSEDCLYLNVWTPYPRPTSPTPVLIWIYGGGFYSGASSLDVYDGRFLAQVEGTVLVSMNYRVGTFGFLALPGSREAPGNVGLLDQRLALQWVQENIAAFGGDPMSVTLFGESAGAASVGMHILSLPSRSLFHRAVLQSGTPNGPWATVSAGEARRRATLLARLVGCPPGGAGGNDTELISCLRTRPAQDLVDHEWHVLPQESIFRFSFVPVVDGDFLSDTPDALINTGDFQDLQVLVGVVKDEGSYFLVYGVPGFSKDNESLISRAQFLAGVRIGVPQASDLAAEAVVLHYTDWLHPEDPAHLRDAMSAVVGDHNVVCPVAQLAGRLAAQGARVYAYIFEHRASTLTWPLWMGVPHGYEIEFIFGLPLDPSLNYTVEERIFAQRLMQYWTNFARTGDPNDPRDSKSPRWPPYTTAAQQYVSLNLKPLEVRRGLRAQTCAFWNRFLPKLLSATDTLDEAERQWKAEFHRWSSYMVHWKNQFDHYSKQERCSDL
Method: as §1

[1] = BuChE from human serum, means ± SEM of three experiments, read-out: IC50 µM ± SEM BuChE
[2] = AChE from rat brain, footnote d: inactive up to 100 µM/L, read-out: IC50 µM ± SEM AChE
[3] = AChE from rat brain, means ± SEM of three experiments, read-out: IC50 µM ± SEM AChE

Row | SMILES | IC50 (BuChE (from human serum)) [µM] | IC50 (AChE (from rat brain)) [µM] | also measured
1 | CN(C)CCC(=O)c1ccc(-c2ccc(C(=O)CCN(C)C)cc2)cc1 [Compound 1, 4,4′-bi-(β-dimethylamino-propinoyl)-biphenyl] | 0.19 | 0.75 | –
2 | CN(C)CC(=O)c1ccc(-c2ccc(C(=O)CN(C)C)cc2)cc1 [Compound 12, 1,1′-([1,1′-Biphenyl]-4,4′-diyl)bis(2-(dimethylamino)ethanone)] | – | – | IC50 (BuChE (from human serum); [1]): 91.7 ± 15.7 µM; IC50 (AChE (from rat brain); [2]): > 100 µM
3 | O=C(CN1CCCCC1)c1ccc(-c2ccc(C(=O)CN3CCCCC3)cc2)cc1 [Compound 13, 1,1′-([1,1′-Biphenyl]-4,4′-diyl)bis(2-(piperidin-1-yl)ethanone)] | 71.7 ± 3.01 | – | IC50 (AChE (from rat brain); [2]): > 100 µM
4 | O=C(CN1CCOCC1)c1ccc(-c2ccc(C(=O)CN3CCOCC3)cc2)cc1 [Compound 14, 1,1′-([1,1′-Biphenyl]-4,4′-diyl)bis(2-morpholinoethanone)] | – | > 100 | IC50 (BuChE (from human serum); [1]): 1.44 ± 0.23 µM
5 | CCN(CC)CCC(=O)c1ccc(-c2ccc(C(=O)CCN(CC)CC)cc2)cc1 [Compound 15, 4,4′-Bis(β-diethylamino-propinoyl)-biphenyl] | 0.74 ± 0.09 | 1.18 ± 0.29 | –
6 | CCCN(CCC)CCC(=O)c1ccc(-c2ccc(C(=O)CCN(CCC)CCC)cc2)cc1 [Compound 16, 4,4′-Bis(β-dipropylamino-propinoyl)-biphenyl] | 2.83 ± 0.5 | 0.88 ± 0.17 | –
7 | O=C(CCN1CCC1)c1ccc(-c2ccc(C(=O)CCN3CCC3)cc2)cc1 [Compound 17, 4,4′-Bis(β-azetidin-propinoyl)-biphenyl] | 2.39 ± 0.75 | 0.71 ± 0.06 | –
8 | O=C(CCN1CCCC1)c1ccc(-c2ccc(C(=O)CCN3CCCC3)cc2)cc1 [Compound 18, 4,4′-Bis(β-pyrrolidin-propinoyl)-biphenyl] | 1.16 ± 0.09 | 0.33 ± 0.06 | –
9 | O=C(CCN1CCCCC1)c1ccc(-c2ccc(C(=O)CCN3CCCCC3)cc2)cc1 [Compound 19] | 1.25 ± 0.15 | 0.096 ± 0.006 | fold more potent than the lead compound (1) for inhibiting AChE (AChE (from rat brain); relative to compound 1): eight
10 | O=C(CCN1CCOCC1)c1ccc(-c2ccc(C(=O)CCN3CCOCC3)cc2)cc1 [Compound 20] | 0.72 ± 0.1 | 0.97 ± 0.08 | –
11 | O=C(CCN1CCCCCC1)c1ccc(-c2ccc(C(=O)CCN3CCCCCC3)cc2)cc1 [Compound 21, 4,4′-Bis(β-azepan-propinoyl)-biphenyl] | 1.94 ± 0.07 | 1.43 ± 0.33 | –
12 | CN1CCN(CCC(=O)c2ccc(-c3ccc(C(=O)CCN4CCN(C)CC4)cc3)cc2)CC1 [Compound 22, 4,4′-Bis(β-4-methylpiperazin-propinoyl)-biphenyl] | 13.8 ± 0.81 | 1.61 ± 0.38 | –
13 | O=C(CCCN1CCCCC1)c1ccc(-c2ccc(C(=O)CCCN3CCCCC3)cc2)cc1 [Compound 23, 1,1′-([1,1′-Biphenyl]-4,4′-diyl)bis(4-(piperidin-1-yl)butan-1-one)] | 5.9 ± 0.4 | 1.32 ± 0.43 | –
14 | O=C(CCCCN1CCCCC1)c1ccc(-c2ccc(C(=O)CCCCN3CCCCC3)cc2)cc1 [Compound 24, 1,1′-([1,1′-Biphenyl]-4,4′-diyl)bis(5-(piperidin-1-yl)pentan-1-one)] | 2.65 ± 0.11 | 0.82 ± 0.16 | –
15 | CN(C)CC(=O)c1ccc(CCc2ccc(C(=O)CN(C)C)cc2)cc1 [Compound 25, 1,1′-(Ethane-1,2-diylbis(4,1-phenylene))bis(2-(dimethylamino)ethanone)] | 9.11 ± 2.55 | 62.3 ± 14.5 | –
16 | O=C(CN1CCCCC1)c1ccc(CCc2ccc(C(=O)CN3CCCCC3)cc2)cc1 [Compound 26, 1,1′-(Ethane-1,2-diylbis(4,1-phenylene))bis(2-(piperidin-1-yl)ethanone)] | 20.7 ± 5.44 | – | IC50 (AChE (from rat brain); [3]): 74.5 ± 8.5 µM
17 | CN1CCN(CC(=O)c2ccc(CCc3ccc(C(=O)CN4CCN(C)CC4)cc3)cc2)CC1 [Compound 27, 1,1′-(Ethane-1,2-diylbis(4,1-phenylene))bis(2-(4-methylpiperazin-1-yl)ethanone)] | 66.5 ± 17 | 74.1 ± 11.5 | –
18 | O=C(CN1CCOCC1)c1ccc(CCc2ccc(C(=O)CN3CCOCC3)cc2)cc1 [Compound 28] | – | – | IC50 (BuChE (from human serum); [1]): 6.3 ± 1.6 µM; IC50 (AChE (from rat brain); [2]): > 100 µM
19 | CN(C)CCC(=O)c1ccc(CCc2ccc(C(=O)CCN(C)C)cc2)cc1 [Compound 29, 1,1′-(Ethane-1,2-diylbis(4,1-phenylene))bis(3-(dimethylamino)propan-1-one)] | 1.21 ± 0.22 | 2.62 ± 0.63 | –
20 | O=C(CCN1CCCCC1)c1ccc(CCc2ccc(C(=O)CCN3CCCCC3)cc2)cc1 [Compound 30, 1,1′-(Ethane-1,2-diylbis(4,1-phenylene))bis(3-(piperidin-1-yl)propan-1-one)] | – | 0.5 ± 0.06 | IC50 (BuChE (from human serum); [1]): 3.14 ± 0.24 µM
21 | O=C(CCN1CCOCC1)c1ccc(CCc2ccc(C(=O)CCN3CCOCC3)cc2)cc1 [Compound 31, 1,1′-(Ethane-1,2-diylbis(4,1-phenylene))bis(3-morpholinopropan-1-one)] | 6.38 ± 1.26 | 3.53 ± 0.79 | –
22 | O=C(CCCN1CCCCC1)c1ccc(CCc2ccc(C(=O)CCCN3CCCCC3)cc2)cc1 [Compound 32, 1,1′-(Ethane-1,2-diylbis(4,1-phenylene))bis(4-(piperidin-1-yl)butan-1-one)] | 19.2 ± 4.78 | 3.67 ± 0.92 | –
23 | O=C(CCCCN1CCCCC1)c1ccc(CCc2ccc(C(=O)CCCCN3CCCCC3)cc2)cc1 [Compound 33, 1,1′-(Ethane-1,2-diylbis(4,1-phenylene))bis(5-(piperidin-1-yl)pentan-1-one)] | 1.64 ± 0.27 | 0.19 ± 0.08 | –
24 | OC(CCN1CCCCC1)c1ccc(-c2ccc(C(O)CCN3CCCCC3)cc2)cc1 (centres unmarked) [Compound 34, 1,1′-([1,1′-Biphenyl]-4,4′-diyl)bis(3-(piperidin-1-yl)propan-1-ol)] | 13.8 ± 1.59 | 31.7 ± 10.2 | –
25 | OC(CCN1CCOCC1)c1ccc(-c2ccc(C(O)CCN3CCOCC3)cc2)cc1 (centres unmarked) [Compound 35, 1,1′-([1,1′-Biphenyl]-4,4′-diyl)bis(3-morpholinopropan-1-ol)] | – | – | IC50 (BuChE (from human serum); BuChE from human serum, footnote d: inactive up to 100 µM/L, read-out: IC50 µM ± SEM BuChE): > 100 µM; IC50 (AChE (from rat brain); [2]): > 100 µM
26 | OC(CCN1CCCCC1)c1ccc(CCc2ccc(C(O)CCN3CCCCC3)cc2)cc1 (centres unmarked) [Compound 36, 1,1′-(Ethane-1,2-diylbis(4,1-phenylene))bis(3-(piperidin-1-yl)propan-1-ol)] | – | – | IC50 (BuChE (from human serum); [1]): 25.9 ± 6.81 µM; IC50 (AChE (from rat brain); [3]): 74.9 ± 35.6 µM
